Starred links: 1 amine or outer side, 2 acyl side, 3 side chain; linkers in the order of their positions; H or OH if unused. Non-standard residues stand in square brackets, D forms with d. Residues, ends and D or L forms follow the SMILES beside them. Groups on a side chain read outwards from the residue. *: point of attachment. C20 diacid = O=C(O)CCCCCCCCCCCCCCCCCCC(=O)*; C18 diacid = O=C(O)CCCCCCCCCCCCCCCCC(=O)*; γGlu = O=C(O)[C@H](CCC(=O)[*:2])N[*:1]; αMeF = C[C@](N)(Cc1ccccc1)C(=O)O; AEEA = NCCOCCOCC(=O)O; Aib = CC(C)(N)C(=O)O
What was measured:
[1] = molecular target: T1, human GLP-1 receptor (hGLP-1R) (Homo sapiens, UniProt P43220); experiment: cAMP production (HTRF) in CHO cells expressing human GLP-1 receptor; format: cell-based
T1 construct: expressed in transfected cells; host or cells: CHO
T1 sequence (P43220 24-463): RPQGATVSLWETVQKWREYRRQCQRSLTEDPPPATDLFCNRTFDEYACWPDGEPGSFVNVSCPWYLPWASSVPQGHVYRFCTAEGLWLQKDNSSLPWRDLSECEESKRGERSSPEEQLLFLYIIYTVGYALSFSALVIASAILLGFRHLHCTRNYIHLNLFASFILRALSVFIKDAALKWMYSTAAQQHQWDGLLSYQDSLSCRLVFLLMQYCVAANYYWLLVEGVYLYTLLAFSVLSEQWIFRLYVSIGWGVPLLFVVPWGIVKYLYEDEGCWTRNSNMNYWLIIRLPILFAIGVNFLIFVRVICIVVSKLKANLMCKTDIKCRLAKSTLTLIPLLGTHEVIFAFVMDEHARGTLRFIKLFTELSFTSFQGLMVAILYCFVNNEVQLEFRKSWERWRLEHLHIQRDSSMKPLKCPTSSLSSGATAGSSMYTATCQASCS

[2] = molecular target: T2, human glucagon receptor (hGCGR) (Homo sapiens, UniProt P47871); experiment: cAMP production (HTRF) in CHO cells expressing human glucagon receptor; format: cell-based; settings: Table 7, modification at position 20, CHO cells expressing hGCGR, geometric mean, read-out: hGluc-R EC50
T2 construct: expressed in transfected cells; host or cells: CHO
T2 sequence (P47871 26-477): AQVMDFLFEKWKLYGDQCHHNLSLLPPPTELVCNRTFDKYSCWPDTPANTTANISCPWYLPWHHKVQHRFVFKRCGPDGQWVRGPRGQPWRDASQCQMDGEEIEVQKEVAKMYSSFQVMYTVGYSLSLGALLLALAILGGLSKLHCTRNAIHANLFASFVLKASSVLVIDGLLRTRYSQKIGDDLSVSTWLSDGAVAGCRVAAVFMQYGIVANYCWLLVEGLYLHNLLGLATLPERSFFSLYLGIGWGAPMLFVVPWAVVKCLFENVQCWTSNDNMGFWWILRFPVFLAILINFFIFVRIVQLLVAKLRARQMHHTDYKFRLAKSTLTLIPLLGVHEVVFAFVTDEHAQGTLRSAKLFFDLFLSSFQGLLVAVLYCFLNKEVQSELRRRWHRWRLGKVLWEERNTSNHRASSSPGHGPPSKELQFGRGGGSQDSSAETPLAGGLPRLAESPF

[3] = molecular target: T3, neprilysin (Homo sapiens, UniProt P08473); experiment: Proteolytic resistance to neprilysin; format: in vitro ADME; settings: pH 8.3
T3 construct: purchased R&D Systems 1182-ZNC-010
T3 sequence (P08473 whole entry): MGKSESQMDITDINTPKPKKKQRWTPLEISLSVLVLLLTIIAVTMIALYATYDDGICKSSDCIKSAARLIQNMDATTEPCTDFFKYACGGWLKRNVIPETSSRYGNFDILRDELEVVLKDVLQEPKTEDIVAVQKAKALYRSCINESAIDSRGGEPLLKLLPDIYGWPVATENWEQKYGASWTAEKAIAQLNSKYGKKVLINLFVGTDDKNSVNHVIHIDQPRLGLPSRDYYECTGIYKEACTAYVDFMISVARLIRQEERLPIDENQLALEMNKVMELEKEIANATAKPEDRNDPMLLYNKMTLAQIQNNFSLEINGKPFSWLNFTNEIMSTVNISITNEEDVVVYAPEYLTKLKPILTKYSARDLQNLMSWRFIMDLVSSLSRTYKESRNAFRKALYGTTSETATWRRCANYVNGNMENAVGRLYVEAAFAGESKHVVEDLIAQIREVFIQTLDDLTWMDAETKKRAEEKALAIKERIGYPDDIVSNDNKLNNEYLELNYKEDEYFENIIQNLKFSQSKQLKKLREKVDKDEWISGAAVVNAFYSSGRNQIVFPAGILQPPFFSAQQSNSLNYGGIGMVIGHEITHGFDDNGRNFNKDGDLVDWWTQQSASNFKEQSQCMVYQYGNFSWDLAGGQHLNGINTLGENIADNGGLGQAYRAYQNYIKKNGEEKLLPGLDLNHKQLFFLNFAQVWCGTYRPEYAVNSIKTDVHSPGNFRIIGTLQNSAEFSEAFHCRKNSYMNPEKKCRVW
Method: 10.0 μg (˜10 units) recombinant Neprilysin (R&D Systems: 1182-ZNC-010) was reconstituted to 100 μL (100 μg/mL, ˜100 units/mL) in assay buffer (50 mM Tris, 50 mM NaCl, 50 mM NaHCO3, adjusted to pH 8.3) to give the enzyme stock solution. Peptide stock solutions were prepared to a concentration of ˜250 μM (˜1.0 mg/mL of 4 kDa peptide) in assay buffer. 100 μL (10 μg, ˜10 units) of neprilysin stock solution was added to 100 μL of peptide stock solution (1.0 mg/mL, ˜100 μg of peptide) and the mixture was co-incubated in a temperature regulated incubator at 37° C. for the duration of the experiment. 25 μL aliquots (˜12.5 μg initial peptide) of the peptide-enzyme mixture were periodically withdrawn (t=0, 30 mins, 1 h, 2 h, 4 h and 24 h) and quenched immediately by addition to an equal volume ([…]) of 10% TFA (v/v) in 1:1 water/acetonitrile to arrest proteolytic activity. The quenched aliquot centrifuged at 7800 rpm, and 30 μL of the supernatant was analyzed by analytical RP-HPLC as follows: Analytical RP-HPLC method: Agilent Polaris C8-A column (4.6×100 mm, 3 micron) eluted with a linear binary gradient of 10-90% MeCN (0.1% TFA v/v) in water (0.1% TFA v/v) over either 10 or 15 mins at 1.5 mL min^−1 at 40° C. with detection by UV absorption at 210 nm. Manual integration (AUC) allowed estimation of remaining intact peptide over the time course of the experiment.

Compound	% intact peptide over time, Neprilysin [3] [%]	also measured
CC[C@H](C)[C@H](NC(=O)C(C)(C)NC(=O)[C@H](CCC(N)=O)NC(=O)[C@@H](NC(=O)[C@](C)(Cc1ccccc1)NC(=O)[C@H](CC(=O)O)NC(=O)[C@H](CCCCNC(=O)COCCOCCNC(=O)COCCOCCNC(=O)CC[C@H](NC(=O)CC[C@H](NC(=O)CCCCCCCCCCCCCCCCCCC(=O)O)C(=O)O)C(=O)O)NC(=O)[C@H](C)NC(=O)[C@H](C)NC(=O)[C@H](CCCNC(=N)N)NC(=O)[C@H](CO)NC(=O)[C@H](CC(=O)O)NC(=O)[C@H](CC(C)C)NC(=O)[C@H](Cc1ccc(O)cc1)NC(=O)[C@H](CCCCN)NC(=O)[C@H](CO)NC(=O)[C@@H](NC(=O)[C@H](CC(=O)O)NC(=O)[C@H](CO)NC(=O)[C@@H](NC(=O)[C@](C)(Cc1ccccc1)NC(=O)[C@H](CO)NC(=O)CNC(=O)[C@H](Cc1c[nH]cn1)NC(=O)C(C)(C)NC(=O)[C@@H](N)Cc1c[nH]cn1)[C@@H](C)O)C(C)C)C(C)C)C(=O)N[C@@H](C)C(=O)N[C@@H](CC(N)=O)C(=O)N[C@H](C(N)=O)[C@@H](C)O [Peptide 283] (H-H[Aib]HGS[αMeF]TSDVSKYLDSRAAK([AEEA-AEEA-γGlu-γGlu-C20 diacid])D[αMeF]VQ[Aib]IANT-NH2)	100	
CC[C@H](C)[C@H](NC(=O)C(C)(C)NC(=O)[C@H](CCC(=O)O)NC(=O)[C@@H](NC(=O)[C@](C)(Cc1ccccc1)NC(=O)[C@H](CC(=O)O)NC(=O)[C@H](CCCNC(=N)N)NC(=O)[C@H](C)NC(=O)[C@H](C)NC(=O)[C@H](CCCCNC(=O)COCCOCCNC(=O)COCCOCCNC(=O)CC[C@H](NC(=O)CCCCCCCCCCCCCCCCC(=O)O)C(=O)O)NC(=O)[C@H](CO)NC(=O)[C@H](CC(=O)O)NC(=O)[C@H](CC(C)C)NC(=O)[C@](C)(Cc1ccccc1)NC(=O)[C@H](CCCCN)NC(=O)[C@H](CO)NC(=O)[C@@H](NC(=O)[C@H](CC(=O)O)NC(=O)[C@H](CO)NC(=O)[C@@H](NC(=O)[C@](C)(Cc1ccccc1)NC(=O)[C@H](CO)NC(=O)CNC(=O)[C@H](Cc1c[nH]cn1)NC(=O)C(C)(C)NC(=O)[C@@H](N)Cc1c[nH]cn1)[C@@H](C)O)C(C)C)C(C)C)C(=O)N[C@@H](C)C(=O)N[C@@H](CC(N)=O)C(=O)N[C@H](C(N)=O)[C@@H](C)O [Peptide 15] (H-H[Aib]HGS[αMeF]TSDVSK[αMeF]LDSK([AEEA-AEEA-γGlu-C18 diacid])AARD[αMeF]VE[Aib]IANT-NH2; N-terminus assumed)	100	
CC[C@H](C)[C@H](NC(=O)C(C)(C)NC(=O)[C@H](CCC(N)=O)NC(=O)[C@@H](NC(=O)[C@](C)(Cc1ccccc1)NC(=O)[C@H](CC(=O)O)NC(=O)[C@H](CCCCNC(=O)COCCOCCNC(=O)COCCOCCNC(=O)CC[C@H](NC(=O)CC[C@H](NC(=O)CCCCCCCCCCCCCCCCCCC(=O)O)C(=O)O)C(=O)O)NC(=O)[C@H](C)NC(=O)[C@H](C)NC(=O)[C@H](CCCNC(=N)N)NC(=O)[C@H](CO)NC(=O)[C@H](CC(=O)O)NC(=O)[C@H](CC(C)C)NC(=O)[C@](C)(Cc1ccccc1)NC(=O)[C@H](CCCCN)NC(=O)[C@H](CO)NC(=O)[C@@H](NC(=O)[C@H](CC(=O)O)NC(=O)[C@H](CO)NC(=O)[C@@H](NC(=O)[C@H](Cc1ccccc1)NC(=O)[C@H](CO)NC(=O)CNC(=O)[C@H](Cc1c[nH]cn1)NC(=O)C(C)(C)NC(=O)[C@@H](N)Cc1c[nH]cn1)[C@@H](C)O)C(C)C)C(C)C)C(=O)N[C@@H](C)C(=O)N[C@@H](CC(N)=O)C(=O)N[C@H](C(N)=O)[C@@H](C)O [Peptide 282] (H-H[Aib]HGSFTSDVSK[αMeF]LDSRAAK([AEEA-AEEA-γGlu-γGlu-C20 diacid])D[αMeF]VQ[Aib]IANT-NH2)	100	

Further lines, with some results ahead:

% intact peptide over time, Neprilysin [3] [%]	Compound	also measured
100	CC[C@H](C)[C@H](NC(=O)[C@H](Cc1c[nH]c2ccccc12)NC(=O)[C@H](CCC(N)=O)NC(=O)[C@@H](NC(=O)[C@H](Cc1ccccc1)NC(=O)[C@H](CC(=O)O)NC(=O)[C@H](CCCCNC(=O)COCCOCCNC(=O)COCCOCCNC(=O)CC[C@H](NC(=O)CC[C@H](NC(=O)CCCCCCCCCCCCCCCCCCC(=O)O)C(=O)O)C(=O)O)NC(=O)[C@H](C)NC(=O)[C@H](C)NC(=O)[C@H](CCCNC(=N)N)NC(=O)[C@H](CO)NC(=O)[C@H](CC(=O)O)NC(=O)[C@H](CC(C)C)NC(=O)[C@](C)(Cc1ccccc1)NC(=O)[C@H](CCCCN)NC(=O)[C@H](CO)NC(=O)[C@@H](NC(=O)[C@H](CC(=O)O)NC(=O)[C@H](CO)NC(=O)[C@@H](NC(=O)[C@H](Cc1ccccc1)NC(=O)[C@H](CO)NC(=O)CNC(=O)[C@H](Cc1c[nH]cn1)NC(=O)C(C)(C)NC(=O)[C@@H](N)Cc1c[nH]cn1)[C@@H](C)O)C(C)C)C(C)C)C(=O)N[C@@H](C)C(=O)N[C@@H](CC(N)=O)C(=O)N[C@H](C(N)=O)[C@@H](C)O [Peptide 290] (H-H[Aib]HGSFTSDVSK[αMeF]LDSRAAK([AEEA-AEEA-γGlu-γGlu-C20 diacid])DFVQWIANT-NH2; N-terminus assumed)	EC50 ([1]; Table 7, modification at position 20, CHO cells expressing hGLP-1R, cAMP, geometric mean, read-out: hGLP-1R EC50): 0.347 nM; % Relative Potency Ratio ([1]; Table 7, % GLP-1R activity relative to GLP-1 / % GlucR activity relative to glucagon): 1.5; EC50 [2]: 0.26 nM; remaining at 4 h, 125 µM ([3]; isolated enzyme neprilysin): 89%; remaining at 24 h, 125 µM ([3]; isolated enzyme neprilysin): 82%
100	CC[C@H](C)[C@H](NC(=O)C(C)(C)NC(=O)[C@H](CCC(N)=O)NC(=O)[C@@H](NC(=O)[C@H](Cc1ccccc1)NC(=O)[C@H](CC(=O)O)NC(=O)[C@H](CCCCNC(=O)COCCOCCNC(=O)COCCOCCNC(=O)CC[C@H](NC(=O)CCCCCCCCCCCCCCCCC(=O)O)C(=O)O)NC(=O)[C@H](C)NC(=O)[C@H](C)NC(=O)[C@H](CCCNC(=N)N)NC(=O)[C@H](CO)NC(=O)[C@H](CC(=O)O)NC(=O)[C@H](CC(C)C)NC(=O)[C@](C)(Cc1ccccc1)NC(=O)[C@H](CCCCN)NC(=O)[C@H](CO)NC(=O)[C@@H](NC(=O)[C@H](CC(=O)O)NC(=O)[C@H](CO)NC(=O)[C@@H](NC(=O)[C@](C)(Cc1ccccc1)NC(=O)[C@H](CO)NC(=O)CNC(=O)[C@H](Cc1c[nH]cn1)NC(=O)C(C)(C)NC(=O)[C@@H](N)Cc1c[nH]cn1)[C@@H](C)O)C(C)C)C(C)C)C(=O)N[C@@H](C)C(=O)N[C@@H](CC(N)=O)C(=O)N[C@H](C(N)=O)[C@@H](C)O [Peptide 287] (H-H[Aib]HGS[αMeF]TSDVSK[αMeF]LDSRAAK([AEEA-AEEA-γGlu-C18 diacid])DFVQ[Aib]IANT-NH2)	
